Laboratory results as given in patent US12624044B2, “SMARCA degraders and uses thereof” (Kymera Therapeutics, Inc., priority 2019, dated 2026).

Tests used:
SMARCA4 = biological target: T1, SMARCA4 (Homo sapiens, UniProt P51532); assay: SMARCA4 Western blot MV4-11 degradation; format: cell-based; details: 24 h; for Dmax: MV4-11, MV4-11 cells, read-out: SMARCA4 WB MV411 degradation 24 h: Average Dmax %; for DC50: MV4-11 cells, read-out: SMARCA4 WB MV411 degradation 24 h: Average external-Abs DC50
T1 construct: SMARCA2 and SMARCA4 protein degradation in MV4-11 cells; endogenous in cells; host or cells: MV4-11
Experimental: Cells were seeded into 6-well plates (MV4-11: 4×10^6 cells/well/1 ml) and 1 ml of 2× compound solution was added into the well to make the final concentration and the plates were mixed well and incubated for 24 hours (No cytotoxicity was observed). The cell were collected with media and spun at 3000 rpm for 5 minutes. The supernatant was aspirated and the well and the cells were washed with cold PBS once and combined for centrifugation again; the supernatant aspirated again. 200 ul pre-chilled RIPAlysis buffer (Boston BioProducts BP-115D) with protease/phosphatase inhibitor (Roche 05892791001/Roche 04906837001) was directly added into the tube to lyze the cells for 20 minutes on ice. The cell lysate were collected into EP tubes and spun at 13000 rpm for 20 minutes and 72 ul supernatant was transferred to a fresh EP tube containing 18 ul of 5× loading buffer (Beyotime Bio P0015) to make the loading samples. The samples were heated to 100° C. for 10 minutes and cooled to RT and microcentrifuged. 20 ul of samples were loaded onto SDS-PAGE gel (Novex, WG1402BOX) and the gel was run at 80 V for 20 minutes and 120 V for 1.5 hours. The samples were electrotransfer to a NC membrane using wet-transfer method with 250 mA for 2.5 hours. The membrane was blocked with LICOR blocking buffer (LI-COR, 927-50000) for 1 hour. The membrane was washed three times with TBST (CST #9997S), 5 minutes each. Incubation was performed with primary antibody prepared in blocking buffer with 0.1% Tween-20 (Solarbio, P8220) at 4° C. overnight (Anti-SMARCA2/BRM antibody (ab15597) 1:500; Anti-BRG1 antibody [EPR3912] (ab108318) 1:1000; Rabbit anti-Baf180 antibody [EPR15860] (Abcam, ab196022) 1:1000; mouse anti-beta-Actin (8H10D10) (CST #3700) 1:10000). The membrane was washed three times with TBST, 5 minutes each. Incubation with secondary antibody was performed for 1 hour at RT (anti-rabbit IgG (Licor, 926-32211) 1:5000; anti-mouse IgG (LI-COR, 926-68070) 1:5000). The membrane was washed three times with TBST, 5 minutes each and lastly the LiCOR was read.
The letter codes for the percentage of SMARCA degradation after 24 hours (Dmax %) include: A (>90% degradation), B (>70-90% degradation), C (50-70% degradation), and D (<50% degradation).

SMARCA2 = SMARCA2 (Homo sapiens, UniProt P51531); assay: MSD SMARCA2 degradation in NCI-H1299 cell line (24 h); format: cell-based; design: HC: NCI-H1299 cells treated with DMSO; host or cells: NCI-H1299; details: for Dmax: NCI-H1299, NCI-H1299 cells; for DC50: NCI-H1299 cells, read-out: SMARCA2 MSD H1299 degradation 24 h: External Abs-DC50
Procedure, shortened: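 NCI-H1299 cells treated 24 h with a 3-fold, 9-point compound dilution series, then lysed in RIPA with protease inhibitor. SMARCA2 in lysate-coated MSD plates detected with rabbit anti-SMARCA2 (0.3 ug/ml) and SULFO-TAG secondary. Relative SMARCA2 level normalized between DMSO-treated H1299 cells and SMARCA2-negative A2780 cells; Dmax % binned A–D.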

Sequence of SMARCA2 (P51531 whole entry): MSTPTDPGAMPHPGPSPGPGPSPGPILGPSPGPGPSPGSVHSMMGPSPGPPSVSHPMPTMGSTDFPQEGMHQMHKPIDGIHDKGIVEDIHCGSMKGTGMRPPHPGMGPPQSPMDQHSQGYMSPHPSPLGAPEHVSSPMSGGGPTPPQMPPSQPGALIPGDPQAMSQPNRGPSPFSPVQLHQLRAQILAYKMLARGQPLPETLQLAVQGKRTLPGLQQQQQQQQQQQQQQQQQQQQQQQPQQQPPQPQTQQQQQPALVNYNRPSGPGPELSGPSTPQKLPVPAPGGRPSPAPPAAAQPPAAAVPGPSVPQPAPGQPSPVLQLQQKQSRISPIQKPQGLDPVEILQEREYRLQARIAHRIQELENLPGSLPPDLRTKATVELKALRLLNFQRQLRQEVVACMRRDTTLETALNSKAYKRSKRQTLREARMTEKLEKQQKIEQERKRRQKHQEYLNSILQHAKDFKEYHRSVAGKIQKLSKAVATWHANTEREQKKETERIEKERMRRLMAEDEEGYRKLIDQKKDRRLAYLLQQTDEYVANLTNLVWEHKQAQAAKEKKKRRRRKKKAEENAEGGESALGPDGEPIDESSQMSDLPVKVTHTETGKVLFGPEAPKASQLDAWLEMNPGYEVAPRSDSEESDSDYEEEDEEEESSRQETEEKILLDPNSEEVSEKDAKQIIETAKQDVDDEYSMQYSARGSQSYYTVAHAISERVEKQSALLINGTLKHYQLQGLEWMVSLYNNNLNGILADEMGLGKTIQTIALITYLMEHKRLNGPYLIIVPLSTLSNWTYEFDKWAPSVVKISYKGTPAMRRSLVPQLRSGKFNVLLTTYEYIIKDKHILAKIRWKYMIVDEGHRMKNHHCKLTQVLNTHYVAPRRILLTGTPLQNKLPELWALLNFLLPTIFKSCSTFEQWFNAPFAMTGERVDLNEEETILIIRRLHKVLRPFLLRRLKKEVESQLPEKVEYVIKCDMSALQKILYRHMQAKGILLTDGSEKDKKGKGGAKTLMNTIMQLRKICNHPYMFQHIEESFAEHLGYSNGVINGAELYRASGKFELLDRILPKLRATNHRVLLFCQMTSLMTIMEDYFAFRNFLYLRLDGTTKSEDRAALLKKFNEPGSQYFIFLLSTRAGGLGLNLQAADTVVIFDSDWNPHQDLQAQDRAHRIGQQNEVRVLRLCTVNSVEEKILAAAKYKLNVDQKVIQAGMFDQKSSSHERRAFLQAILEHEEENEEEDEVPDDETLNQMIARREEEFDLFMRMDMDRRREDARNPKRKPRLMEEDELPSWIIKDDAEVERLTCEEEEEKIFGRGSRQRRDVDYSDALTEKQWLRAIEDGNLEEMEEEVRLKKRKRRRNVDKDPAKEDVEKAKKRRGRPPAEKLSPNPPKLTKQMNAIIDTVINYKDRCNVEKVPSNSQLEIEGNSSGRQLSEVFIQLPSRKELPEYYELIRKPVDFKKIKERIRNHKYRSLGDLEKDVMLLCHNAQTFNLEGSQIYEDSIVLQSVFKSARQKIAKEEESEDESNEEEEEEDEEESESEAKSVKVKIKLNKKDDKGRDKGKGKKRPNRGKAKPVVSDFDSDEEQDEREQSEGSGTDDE
T1 sequence (P51532 whole entry): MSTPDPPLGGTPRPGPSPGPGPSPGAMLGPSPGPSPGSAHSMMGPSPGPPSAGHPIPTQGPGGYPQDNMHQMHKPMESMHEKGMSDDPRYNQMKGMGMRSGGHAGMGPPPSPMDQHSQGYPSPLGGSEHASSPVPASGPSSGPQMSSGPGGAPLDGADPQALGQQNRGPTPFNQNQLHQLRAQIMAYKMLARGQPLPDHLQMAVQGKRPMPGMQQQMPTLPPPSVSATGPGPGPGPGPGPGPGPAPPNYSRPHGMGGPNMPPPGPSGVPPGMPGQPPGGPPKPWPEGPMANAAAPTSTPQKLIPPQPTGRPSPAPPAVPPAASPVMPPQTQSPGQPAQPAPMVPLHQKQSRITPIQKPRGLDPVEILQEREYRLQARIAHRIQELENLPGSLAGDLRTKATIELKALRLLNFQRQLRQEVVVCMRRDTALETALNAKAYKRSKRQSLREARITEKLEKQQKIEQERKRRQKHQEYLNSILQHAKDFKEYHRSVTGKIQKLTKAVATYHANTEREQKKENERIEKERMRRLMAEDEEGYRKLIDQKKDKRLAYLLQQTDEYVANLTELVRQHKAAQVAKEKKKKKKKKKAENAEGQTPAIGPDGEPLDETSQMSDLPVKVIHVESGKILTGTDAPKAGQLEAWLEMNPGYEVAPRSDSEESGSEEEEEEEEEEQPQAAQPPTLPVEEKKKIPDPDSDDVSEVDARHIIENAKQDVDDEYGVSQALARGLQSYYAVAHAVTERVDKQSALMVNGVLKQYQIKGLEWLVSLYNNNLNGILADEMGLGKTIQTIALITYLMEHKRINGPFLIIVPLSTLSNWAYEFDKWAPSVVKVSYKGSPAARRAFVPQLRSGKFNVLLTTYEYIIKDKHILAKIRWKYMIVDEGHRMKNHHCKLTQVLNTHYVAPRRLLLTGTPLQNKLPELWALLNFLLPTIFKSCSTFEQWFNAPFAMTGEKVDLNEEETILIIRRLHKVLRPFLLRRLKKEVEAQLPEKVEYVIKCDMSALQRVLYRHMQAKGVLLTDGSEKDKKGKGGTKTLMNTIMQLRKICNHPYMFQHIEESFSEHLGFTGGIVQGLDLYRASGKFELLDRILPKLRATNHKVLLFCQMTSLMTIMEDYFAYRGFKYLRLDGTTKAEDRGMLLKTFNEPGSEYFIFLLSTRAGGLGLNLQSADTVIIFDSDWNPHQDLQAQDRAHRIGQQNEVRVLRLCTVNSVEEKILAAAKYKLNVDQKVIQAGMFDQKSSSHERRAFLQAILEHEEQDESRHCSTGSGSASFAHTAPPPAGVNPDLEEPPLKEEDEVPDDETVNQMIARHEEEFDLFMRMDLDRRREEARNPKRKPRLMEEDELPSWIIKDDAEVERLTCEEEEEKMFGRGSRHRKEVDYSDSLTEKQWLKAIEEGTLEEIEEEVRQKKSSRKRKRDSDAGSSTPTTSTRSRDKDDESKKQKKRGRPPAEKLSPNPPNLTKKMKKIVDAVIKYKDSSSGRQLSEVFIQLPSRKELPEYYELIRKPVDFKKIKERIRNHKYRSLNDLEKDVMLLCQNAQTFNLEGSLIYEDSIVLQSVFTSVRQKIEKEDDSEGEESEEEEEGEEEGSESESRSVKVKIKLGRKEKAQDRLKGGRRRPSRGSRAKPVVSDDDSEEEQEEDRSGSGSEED

| SMILES | Dmax (SMARCA4) | DC50 (SMARCA4) | Dmax (SMARCA2) | DC50 (SMARCA2) |
| --- | --- | --- | --- | --- |
| Cc1ncsc1-c1ccc(CNC(=O)[C@@H]2C[C@@H](O)CN2C(=O)[C@@H](NC(=O)CN2CCC(n3cc(-c4cc(-c5ccccc5O)nnc4N)cn3)CC2)C(C)(C)C)cc1 [I-457] | 70 to 90% | 100 to 500 nM | 70 to 90% | 501 to 1000 nM |
| Cc1ncsc1-c1ccc(CNC(=O)[C@@H]2C[C@@H](O)CN2C(=O)[C@@H](NC(=O)CCCN2CCC(n3cc(-c4cc(-c5ccccc5O)nnc4N)cn3)CC2)C(C)(C)C)cc1 [I-459] | < 50% | 100 to 500 nM | < 50% | 100 to 500 nM |
| Cc1ncsc1-c1ccc(CNC(=O)[C@@H]2C[C@@H](O)CN2C(=O)[C@@H](NC(=O)CCCCN2CCC(n3cc(-c4cc(-c5ccccc5O)nnc4N)cn3)CC2)C(C)(C)C)cc1 [I-460] | < 50% | 100 to 500 nM | < 50% | 100 to 500 nM |
| Cc1ncsc1-c1ccc(CNC(=O)[C@@H]2C[C@@H](O)CN2C(=O)[C@@H](NC(=O)CCCCCN2CCC(n3cc(-c4cc(-c5ccccc5O)nnc4N)cn3)CC2)C(C)(C)C)cc1 [I-461] | 50 to 70% | 100 to 500 nM | 50 to 70% | 501 to 1000 nM |
| Cc1ncsc1-c1ccc(CNC(=O)[C@@H]2C[C@@H](O)CN2C(=O)[C@@H](NC(=O)CN2CCC(Cn3cc(-c4cc(-c5ccccc5O)nnc4N)cn3)CC2)C(C)(C)C)cc1 [I-465] | < 50% | 100 to 500 nM | < 50% | > 1000 nM |
| Cc1ncsc1-c1ccc(CNC(=O)[C@@H]2C[C@@H](O)CN2C(=O)[C@@H](NC(=O)CCCN2CCC(Cn3cc(-c4cc(-c5ccccc5O)nnc4N)cn3)CC2)C(C)(C)C)cc1 [I-467] | < 50% | 100 to 500 nM | < 50% | 100 to 500 nM |
| Cc1ncsc1-c1ccc(CNC(=O)[C@@H]2C[C@@H](O)CN2C(=O)[C@@H](NC(=O)CCCCN2CCC(Cn3cc(-c4cc(-c5ccccc5O)nnc4N)cn3)CC2)C(C)(C)C)cc1 [I-468] | < 50% | 100 to 500 nM | < 50% | > 1000 nM |
| Cc1ncsc1-c1ccc(CNC(=O)[C@@H]2C[C@@H](O)CN2C(=O)[C@@H](NC(=O)CN2CCC[C@@H](Cn3cc(-c4cc(-c5ccccc5O)nnc4N)cn3)C2)C(C)(C)C)cc1 [I-469] | 50 to 70% | 100 to 500 nM | < 50% | 100 to 500 nM |
| Cc1ncsc1-c1ccc(CNC(=O)[C@@H]2C[C@@H](O)CN2C(=O)[C@@H](NC(=O)CCCCN2CCC[C@@H](Cn3cc(-c4cc(-c5ccccc5O)nnc4N)cn3)C2)C(C)(C)C)cc1 [I-472] | 50 to 70% | 100 to 500 nM | < 50% | 100 to 500 nM |
| Cc1ncsc1-c1ccc(CNC(=O)[C@@H]2C[C@@H](O)CN2C(=O)[C@@H](NC(=O)CN2CCN(Cc3ccc(-c4cc(-c5ccccc5O)nnc4N)cc3)CC2)C(C)(C)C)cc1 [I-473] | < 50% | 100 to 500 nM | < 50% | 100 to 500 nM |
| Cc1ncsc1-c1ccc(CNC(=O)[C@@H]2C[C@@H](O)CN2C(=O)[C@@H](NC(=O)CCCCN2CCN(Cc3ccc(-c4cc(-c5ccccc5O)nnc4N)cc3)CC2)C(C)(C)C)cc1 [I-476] | 50 to 70% | 100 to 500 nM | < 50% | 100 to 500 nM |
| NCC#Cc1cnc(N2C3CCC2CN(c2cc(-c4ccccc4O)nnc2N)C3)nc1 [I-535, 2-[6-amino-5-[8-[5-(3-aminoprop-1-ynyl)pyrimidin-2-yl]-3,8-diazabicyclo[3.2.1]octan-3-yl]pyridazin-3-yl]phenol] | < 50% | < 100 nM | < 50% | > 1000 nM |
